Results: ChEMBL document CHEMBL1201862, “PubChem BioAssay data set” (2004)
Structures can show the parent of a compound that is named as a salt. Values belong to the compound of their own block, whether it stands above or below them. The source made the active and inactive calls.

What was measured:
Streptococcus = experiment: Group A Streptococcus viability loss, dose response, counter-screen for streptokinase expression inhibitor project, luminescence, BacTiterGlo (AID 1915); assay type: functional, organism-based;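 note: potency for reduction of bacterial viability or growth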
[1] = test system: Streptococcus sp. 'group A'; experiment: growth inhibition of control SK(-) GAS strain, dose response, counter-screen for streptokinase expression inhibitor project, luminescence, kanamycin, BacTiterGlo, confirmation (AID 1900); assay type: functional, organism-based
[2] = biological target: Photoreceptor-specific nuclear receptor (Homo sapiens, UniProt Q9Y5X4); assay type: functional, cell-based;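 note: CHO-S cells with Gal4-NCOR and VP16-NR2E3 two-hybrid luciferase reporter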
Ion channel NompC = Ion channel NompC (Danio rerio, UniProt Q7T1G6); experiment: Fluorescence counterscreen assay for TRPML3 agonists: dose response cell-based high-throughput screening assay to identify agonists of the transient receptor potential channel N1 (TRPN1). [Related pubchem assays: 1526, 1424, 1448 ]; assay type: functional
Mucolipin-3 = Mucolipin-3 (Homo sapiens, UniProt Q8TDD5); experiment: Dose response cell-based high-throughput screening assay for agonists of the transient receptor potential channel ML3 (TRPML3). [Related pubchem assays: 1526, 1424, 1448 ]; assay type: functional
[3] = biological target: Neuropeptide Y receptor type 1 (Homo sapiens, UniProt P25929); assay type: functional;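 note: HEK293 cells with a CNG channel challenged with NPY then isoproterenol; potency as antagonist that reverses NPY suppression of cAMP signal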
[4] = biological target: Neuropeptide Y receptor type 2 (Homo sapiens, UniProt P49146); assay type: functional, cell-based;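 note: HEK293 cells expressing the receptor and a CNG channel; stimulus was NPY near EC95 followed by isoproterenol to raise cAMP; antagonist potency measured as restoring cAMP signal that NPY suppresses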
Oxytocin receptor = Oxytocin receptor (Homo sapiens, UniProt P30559); experiment: Fluorescence-based cell-based high throughput dose response assay for potentiators of Oxytocin Receptor (OXTR). [Related pubchem assays: 434985 (Confirmation screen (OXTR potentiators in triplicate)), 2481 (Summary (OXTR potentiators)), 2445 (Primary screen (OXTR potentiators in singlicate))]; assay type: functional
Sequence of Oxytocin receptor (P30559 whole entry): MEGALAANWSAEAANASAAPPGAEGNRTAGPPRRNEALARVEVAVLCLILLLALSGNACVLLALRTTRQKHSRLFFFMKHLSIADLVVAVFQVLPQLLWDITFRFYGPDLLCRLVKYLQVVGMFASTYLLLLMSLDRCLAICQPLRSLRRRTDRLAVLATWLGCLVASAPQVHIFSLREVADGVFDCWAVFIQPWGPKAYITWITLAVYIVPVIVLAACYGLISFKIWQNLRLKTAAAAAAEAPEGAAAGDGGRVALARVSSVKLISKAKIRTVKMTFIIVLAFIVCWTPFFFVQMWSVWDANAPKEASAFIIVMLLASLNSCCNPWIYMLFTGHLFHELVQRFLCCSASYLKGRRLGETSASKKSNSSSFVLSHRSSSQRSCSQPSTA

Sequence of Neuropeptide Y receptor type 1 (P25929 whole entry): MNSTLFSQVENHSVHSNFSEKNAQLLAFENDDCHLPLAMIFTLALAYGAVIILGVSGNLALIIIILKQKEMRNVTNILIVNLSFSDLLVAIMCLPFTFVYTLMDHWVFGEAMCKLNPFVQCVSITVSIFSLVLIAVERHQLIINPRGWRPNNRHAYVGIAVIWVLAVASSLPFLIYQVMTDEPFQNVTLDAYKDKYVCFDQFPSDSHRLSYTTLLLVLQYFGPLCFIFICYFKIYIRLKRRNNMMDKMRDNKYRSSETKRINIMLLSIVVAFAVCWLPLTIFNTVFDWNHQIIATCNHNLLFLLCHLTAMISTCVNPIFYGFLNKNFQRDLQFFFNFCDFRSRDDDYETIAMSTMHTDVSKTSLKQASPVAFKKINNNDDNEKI
Sequence of Mucolipin-3 (Q8TDD5 whole entry): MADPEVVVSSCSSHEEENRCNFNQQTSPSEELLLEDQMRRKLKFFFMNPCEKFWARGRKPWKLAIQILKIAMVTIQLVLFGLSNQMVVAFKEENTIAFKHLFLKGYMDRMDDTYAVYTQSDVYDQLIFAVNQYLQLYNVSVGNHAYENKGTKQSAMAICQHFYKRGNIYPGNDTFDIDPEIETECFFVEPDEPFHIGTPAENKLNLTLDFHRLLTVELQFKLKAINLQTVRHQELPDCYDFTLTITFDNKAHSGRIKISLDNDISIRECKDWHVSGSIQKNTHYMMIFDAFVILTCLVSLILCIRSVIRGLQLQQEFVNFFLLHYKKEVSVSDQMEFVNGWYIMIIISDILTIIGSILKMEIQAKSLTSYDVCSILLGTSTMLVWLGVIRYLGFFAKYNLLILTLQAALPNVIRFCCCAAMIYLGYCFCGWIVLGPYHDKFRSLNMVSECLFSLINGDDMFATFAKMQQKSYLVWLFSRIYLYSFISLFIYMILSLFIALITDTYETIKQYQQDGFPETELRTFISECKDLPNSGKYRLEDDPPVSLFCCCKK
Sequence of Neuropeptide Y receptor type 2 (P49146 whole entry): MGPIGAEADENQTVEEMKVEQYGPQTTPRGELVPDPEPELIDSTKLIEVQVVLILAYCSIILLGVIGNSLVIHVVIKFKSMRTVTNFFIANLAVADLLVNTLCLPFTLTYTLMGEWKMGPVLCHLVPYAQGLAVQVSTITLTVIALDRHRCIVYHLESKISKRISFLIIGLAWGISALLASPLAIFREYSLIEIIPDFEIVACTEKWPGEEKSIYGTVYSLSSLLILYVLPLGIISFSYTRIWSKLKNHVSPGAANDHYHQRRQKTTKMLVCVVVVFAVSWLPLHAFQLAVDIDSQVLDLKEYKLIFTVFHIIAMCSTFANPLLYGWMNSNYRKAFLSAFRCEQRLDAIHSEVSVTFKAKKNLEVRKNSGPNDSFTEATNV
Sequence of Ion channel NompC (Q7T1G6 whole entry): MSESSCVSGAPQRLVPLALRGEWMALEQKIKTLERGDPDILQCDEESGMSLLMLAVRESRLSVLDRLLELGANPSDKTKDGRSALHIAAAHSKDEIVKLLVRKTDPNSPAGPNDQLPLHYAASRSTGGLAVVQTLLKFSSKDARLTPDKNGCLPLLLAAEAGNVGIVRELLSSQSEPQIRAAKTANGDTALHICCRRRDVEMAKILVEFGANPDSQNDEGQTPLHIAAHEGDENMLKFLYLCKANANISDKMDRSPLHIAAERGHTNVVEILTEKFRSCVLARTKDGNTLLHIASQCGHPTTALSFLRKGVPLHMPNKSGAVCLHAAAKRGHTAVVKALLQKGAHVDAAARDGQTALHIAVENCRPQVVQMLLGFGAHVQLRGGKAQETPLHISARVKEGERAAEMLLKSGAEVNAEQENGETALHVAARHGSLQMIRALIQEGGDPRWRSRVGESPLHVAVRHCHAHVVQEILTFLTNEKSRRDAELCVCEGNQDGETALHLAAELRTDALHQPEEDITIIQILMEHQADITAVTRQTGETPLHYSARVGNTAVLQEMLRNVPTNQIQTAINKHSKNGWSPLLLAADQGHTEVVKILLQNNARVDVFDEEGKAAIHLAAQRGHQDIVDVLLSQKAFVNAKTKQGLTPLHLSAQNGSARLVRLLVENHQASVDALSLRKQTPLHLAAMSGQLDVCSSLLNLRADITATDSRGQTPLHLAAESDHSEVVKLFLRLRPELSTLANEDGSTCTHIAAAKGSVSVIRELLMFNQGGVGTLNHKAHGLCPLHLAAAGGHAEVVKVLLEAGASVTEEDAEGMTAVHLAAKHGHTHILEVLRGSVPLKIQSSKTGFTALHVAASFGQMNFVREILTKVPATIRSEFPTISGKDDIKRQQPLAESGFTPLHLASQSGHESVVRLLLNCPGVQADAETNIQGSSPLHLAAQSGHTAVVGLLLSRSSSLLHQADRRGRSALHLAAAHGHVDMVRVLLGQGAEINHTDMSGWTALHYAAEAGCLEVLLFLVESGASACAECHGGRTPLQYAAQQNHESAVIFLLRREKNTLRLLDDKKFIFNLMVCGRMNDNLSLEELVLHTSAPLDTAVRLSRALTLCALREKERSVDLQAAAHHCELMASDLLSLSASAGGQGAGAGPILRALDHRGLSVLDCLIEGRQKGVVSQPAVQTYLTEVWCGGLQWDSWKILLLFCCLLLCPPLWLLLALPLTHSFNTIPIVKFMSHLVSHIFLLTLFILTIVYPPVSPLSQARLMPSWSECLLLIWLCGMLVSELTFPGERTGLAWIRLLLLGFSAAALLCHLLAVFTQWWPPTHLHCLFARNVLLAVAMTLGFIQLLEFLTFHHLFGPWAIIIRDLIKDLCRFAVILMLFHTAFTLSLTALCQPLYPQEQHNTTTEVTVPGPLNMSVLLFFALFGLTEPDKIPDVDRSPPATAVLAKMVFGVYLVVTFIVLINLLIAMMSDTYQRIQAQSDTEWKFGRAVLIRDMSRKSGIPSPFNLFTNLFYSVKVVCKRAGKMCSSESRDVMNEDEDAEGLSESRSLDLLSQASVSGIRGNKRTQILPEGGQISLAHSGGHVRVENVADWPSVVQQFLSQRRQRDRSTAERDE
Sequence of Photoreceptor-specific nuclear receptor (Q9Y5X4 whole entry, the tested form may be a part): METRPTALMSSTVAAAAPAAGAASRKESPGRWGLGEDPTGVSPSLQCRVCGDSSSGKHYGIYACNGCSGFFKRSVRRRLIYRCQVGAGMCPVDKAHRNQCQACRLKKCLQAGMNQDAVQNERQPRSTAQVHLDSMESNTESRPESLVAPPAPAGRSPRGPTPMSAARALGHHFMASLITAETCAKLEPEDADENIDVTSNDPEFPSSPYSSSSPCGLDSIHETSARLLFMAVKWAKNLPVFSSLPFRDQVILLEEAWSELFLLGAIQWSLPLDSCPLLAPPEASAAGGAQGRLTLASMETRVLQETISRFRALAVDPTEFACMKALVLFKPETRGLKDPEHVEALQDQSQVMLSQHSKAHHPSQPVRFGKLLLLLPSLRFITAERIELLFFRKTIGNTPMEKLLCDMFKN

SMILES: N=C1SCC(=O)N1c1ncc(Cc2cccc(Cl)c2)s1
EC50 (Streptococcus): 3.33 µM (active)
EC50 [1]: 0.244 µM (active)
IC50 [2]: 2.63 µM (active)
EC50 (Ion channel NompC): > 29.9 µM (not active)
EC50 (Mucolipin-3): 5.44 µM (active)

SMILES: CN(C)C(=O)C(CCN1CCC(O)(c2ccc(Cl)cc2)CC1)(c1ccccc1)c1ccccc1 [LOPERAMIDE HYDROCHLORIDE]
IC50 [3]: > 35 µM (not active)
IC50 [4]: > 35 µM (not active)

EC50 (Oxytocin receptor): > 29.9 µM (not active)
SMILES: CCOc1ccccc1NC(=O)c1cccc(NC(=O)CC(c2ccccc2)c2ccccc2)c1
